According to ChEMBL document CHEMBL3407340, “Synthesis, radiolabeling and evaluation of novel 4-oxo-quinoline derivatives as PET tracers for imaging cannabinoid type 2 receptor” (Eur J Med Chem, 2015):
The source made the active and inactive calls. No cut-off for these calls is given here.

Assays:
[1] = target: Cannabinoid receptor 2 (Mus musculus) (UniProt P47936); assay: Binding affinity to CB2 receptor in mouse spleen at 0.4 nM after 15 mins by autoradiography in presence of GW405833; settings: tested as the 11C-labelled form
[2] = target: Cannabinoid receptor 2 (Rattus norvegicus) (UniProt Q9QZN9); assay: Binding affinity to CB2 receptor in rat spleen at 0.4 nM after 15 mins by autoradiography in presence of GW405833; format: tissue-based; settings: tested as the 11C-labelled form
Cannabinoid receptor 1 = Cannabinoid receptor 1 (Homo sapiens, UniProt P21554); assay: Displacement of [3H]-CP-55940 from human CB1 receptor transfected in CHOK1 cells after 90 mins by liquid scintillation counting analysis; format: cell-based, CHO-K1
Sequence of Cannabinoid receptor 1 (P21554 whole entry): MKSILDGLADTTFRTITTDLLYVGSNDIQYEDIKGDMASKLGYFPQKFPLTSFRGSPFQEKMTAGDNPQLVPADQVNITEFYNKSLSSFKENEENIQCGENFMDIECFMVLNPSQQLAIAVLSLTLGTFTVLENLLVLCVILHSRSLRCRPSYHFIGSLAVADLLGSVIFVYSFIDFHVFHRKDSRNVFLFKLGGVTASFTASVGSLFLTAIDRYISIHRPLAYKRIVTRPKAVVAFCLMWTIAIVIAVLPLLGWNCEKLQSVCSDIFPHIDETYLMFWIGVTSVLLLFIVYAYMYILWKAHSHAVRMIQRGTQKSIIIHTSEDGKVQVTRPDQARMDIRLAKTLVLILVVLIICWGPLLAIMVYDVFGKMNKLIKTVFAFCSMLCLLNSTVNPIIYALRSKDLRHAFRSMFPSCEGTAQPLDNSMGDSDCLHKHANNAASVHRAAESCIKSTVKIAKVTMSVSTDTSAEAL

Sequence of Cannabinoid receptor 2 (Mus musculus) (P47936 whole entry): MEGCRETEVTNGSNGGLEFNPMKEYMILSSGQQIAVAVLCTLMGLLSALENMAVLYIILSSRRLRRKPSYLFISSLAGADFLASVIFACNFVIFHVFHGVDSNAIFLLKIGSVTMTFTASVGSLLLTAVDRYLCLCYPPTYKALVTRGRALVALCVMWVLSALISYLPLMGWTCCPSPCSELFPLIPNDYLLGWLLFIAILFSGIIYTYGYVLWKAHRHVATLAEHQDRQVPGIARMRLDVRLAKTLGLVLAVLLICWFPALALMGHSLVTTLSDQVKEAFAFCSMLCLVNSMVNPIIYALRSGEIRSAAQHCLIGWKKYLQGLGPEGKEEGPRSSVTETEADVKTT
Sequence of Cannabinoid receptor 2 (Rattus norvegicus) (Q9QZN9 whole entry): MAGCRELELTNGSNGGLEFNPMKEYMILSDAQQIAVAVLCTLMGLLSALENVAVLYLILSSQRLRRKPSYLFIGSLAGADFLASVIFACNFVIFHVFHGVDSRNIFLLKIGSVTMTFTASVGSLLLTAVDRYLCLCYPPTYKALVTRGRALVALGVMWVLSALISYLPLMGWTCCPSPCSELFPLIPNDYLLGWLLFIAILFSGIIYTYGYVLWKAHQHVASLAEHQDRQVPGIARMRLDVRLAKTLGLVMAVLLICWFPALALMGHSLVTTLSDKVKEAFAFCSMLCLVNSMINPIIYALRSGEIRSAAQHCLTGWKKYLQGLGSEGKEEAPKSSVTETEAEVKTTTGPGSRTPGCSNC

Q: What does the source list for `CCOCCn1cc(C(=O)NC23CC4CC(CC(C4)C2)C3)c(=O)c2cccc(OC)c21`?
A: Activity [1]: inactive; Activity [2]: inactive; Ki (Cannabinoid receptor 1): > 10 µM
